In assay [1] the target is T1, Ephrin type-A receptor 2 [596-900] (Homo sapiens, UniProt P29317).
T1 construct: 596-900
T1 sequence (P29317 whole entry): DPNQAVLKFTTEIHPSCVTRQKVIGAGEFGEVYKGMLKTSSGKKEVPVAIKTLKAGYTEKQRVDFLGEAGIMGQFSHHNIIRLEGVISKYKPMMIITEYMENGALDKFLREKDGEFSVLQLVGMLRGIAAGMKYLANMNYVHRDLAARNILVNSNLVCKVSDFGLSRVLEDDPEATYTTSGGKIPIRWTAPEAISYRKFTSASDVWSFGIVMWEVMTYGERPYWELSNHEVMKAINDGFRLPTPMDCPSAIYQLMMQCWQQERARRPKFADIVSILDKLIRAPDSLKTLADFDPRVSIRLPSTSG
As to the kind of experiment: Kinobeads Competition Assay.

In assay [2] the target is T1, Ephrin type-A receptor 2 [596-900]. The assay can be described thus: HotSpot Kinase Activity Assay. From the text:
Refer to Reaction Biology Corps.

One may read the Kd as the concentration at which binding is half-saturated. Higher therefore signals weaker binding. By IC50 is commonly meant the concentration at which inhibition is half-maximal. Low values mean greater potency, high ones weaker potency.

`CN1CCN(CCOc2cc(OC3CCOCC3)c3c(Nc4c(Cl)ccc5c4OCO5)ncnc3c2)CC1` displayed a Kd in assay [1] of 338 nM.

In assay [1], `CNC(=O)c1cc(Oc2ccc(NC(=O)Nc3ccc(Cl)c(C(F)(F)F)c3)c(F)c2)ccn1` displayed a Kd of 869 nM.

In turn, `CC(C)c1cc(CNc2nc(Nc3cc(C4CC4)[nH]n3)cc(N3CCN(C)CC3)n2)on1` [4-N-(5-cyclopropyl-1H-pyrazol-3-yl)-6-(4-methylpiperazin-1-yl)-2-N-[(3-propan-2-yl-1,2-oxazol-5-yl)methyl]pyrimidine-2,4-diamine] registered an IC50 in assay [2] of 4 nM. In assay [1], this compound gave a Kd of 19 nM.

With `Cc1ccc(NC(=O)c2ccc(CN3CC[C@H](N(C)C)C3)c(C(F)(F)F)c2)cc1Nc1ncc(-c2cncnc2)cn1` [4-[[(3S)-3-(dimethylamino)pyrrolidin-1-yl]methyl]-N-[4-methyl-3-[(5-pyrimidin-5-ylpyrimidin-2-yl)amino]phenyl]-3-(trifluoromethyl)benzamide], in assay [2], half-maximal inhibition (IC50) was put at 17 nM. The compound also returned a Kd in assay [1] of 192 nM.

In turn, `CCS(=O)(=O)c1cccc(-c2cc(C(=O)NC3CCN(C)CC3)c(C)c3[nH]c4ncc(C)cc4c23)c1` [5-(3-ethylsulfonylphenyl)-3,8-dimethyl-N-(1-methylpiperidin-4-yl)-9H-pyrido[2,3-b]indole-7-carboxamide] returned an IC50 in assay [2] of 4.8 nM. This compound displayed a Kd in assay [1] of 198 nM.

Regarding `COc1cc2c(Nc3ccc(Cl)c(Cl)c3F)ncnc2cc1OCC1C[C@@H]2CN(C)C[C@@H]2C1` (stereo partly drawn) [7-[[(3aS,6aR)-2-methyl-3,3a,4,5,6,6a-hexahydro-1H-cyclopenta[c]pyrrol-5-yl]methoxy]-N-(3,4-dichloro-2-fluorophenyl)-6-methoxyquinazolin-4-amine], the Kd in assay [1] was determined as 458 nM.

In assay [1], `COc1cc(N2CCC(N3CCN(C)CC3)CC2)ccc1Nc1ncnc(Nc2ccccc2S(=O)(=O)C(C)C)n1` [ASP-3026] yielded a Kd of 640 nM.

The compound `COc1cc(Nc2ncc3c(n2)-c2ccc(Cl)cc2C(c2c(F)cccc2OC)=NC3)ccc1C(=O)O` [Alisertib] showed an IC50 in assay [2] of 48 nM. Moreover, binding in assay [1] was put at a Kd of 187 nM.

As for `COc1cccc(Nc2ncnn3ccc(CN4CC[C@@H](N)[C@H](O)C4)c23)c1` [BMS-690514], the Kd in assay [1] amounted to 961 nM.

In the case of `C[C@@H](NC(=O)c1ncnc(N)c1Cl)c1ncc(C(=O)Nc2cc(C(F)(F)F)c(Cl)cn2)s1` [MLN-2480], binding in assay [1] was characterised by a dissociation constant (Kd) of 484 nM.

For `CNC(=O)c1nn(C)c2c1C(C)(C)Cc1cnc(Nc3ccc(N4CCN(C)CC4)cc3)nc1-2` [Milciclib], binding in assay [1] was characterised by a dissociation constant (Kd) of 672 nM.

In turn, `COc1cc2nccc(Oc3ccc(NC(=O)Nc4cc(C)on4)c(Cl)c3)c2cc1OC` [Tivozanib] had a Kd in assay [1] of 259 nM.

The record behind these values is BindingDB's records for doi:10.1021/acschembio.6b00709 (Technical University of Munich, 2016).
